Test results reported in US20260234187A1, “ANTIMICROBIAL PEPTIDES” (MATERIAS S.R.L., priority 2020, published 2026).
Like-named read-outs stand apart in the source and are kept apart here. Where no end group is shown, it is not given here.

Assays:
[1] = system: Candida albicans (ATCC 14053); test: activity against yeast, plate count, MFC; format: cell-based; settings: C. albicans; 25 μM, 6 h
Procedure: The inhibitory activity of the RiLK1 peptide was determined against the yeast Candida albicans. A stock culture was prepared in which 10^5 CFUs of C. albicans were inoculated in 10 ml of buffered peptone water. A reference strain (ATCC 14053) was used for this species. The culture was incubated for 6 h at 37° C. with the RiLK1 peptide at 25 μM concentrations. At the same time, control samples were incubated without adding the peptide. 100 μl of the samples thus prepared were seeded on DG18 plates (Dichloran 18% Glycerol Agar-ISO 21527-2) and incubated at 25° C. for 7 days. All experimental conditions investigated used the plate count method to estimate the antimycotic activity of the peptide. Specifically, the numbers of colonies grown on agar plates seeded with the cultures in the absence or presence of the individual peptide dilutions were counted and compared. The standard deviations of the triplicate incubations of each plate were determined using statistical software. The evaluation of the Minimum Fungicidal Concentration (MFC), i.e., the lowest concentration of antifungal agent capable of 99.9% inhibition of fungal growth on plates, was carried out as described in Bílikova et al, (2015, Peptides 68:190-196).

E. coli [2] = format: cell-based, Escherichia coli
Procedure: The evaluation of the Minimum Bactericidal Concentration (MBC), i.e., the lowest concentration of antimicrobial agent capable of 99.9% inhibition of bacterial growth on plates, was carried out as described in Bílikova et al, (2015, Peptides 68:190-196). […] It should be noted that the peptide object of the present invention is more powerful and efficient than the peptide IDR-1018-K6 (described in patent application WO2019012158) against the pathogenic bacteria L. monocytogenes and S. typhimurium, with bactericidal concentration values 4-fold and 7-fold lower, respectively, compared to those shown by IDR-1018-K6.

[3] = format: physicochemical; settings: 50 μM in 1M NaCl, 25° C.
Procedure: The stability analysis of the RiLK1 peptide in the presence of a high concentration saline solution (1M NaCl) was carried out by reverse phase (RP) HPLC chromatography, performed on a μBondpack C18 column. 50 μM RiLK1 peptide was dissolved in 1 M NaCl and the samples were incubated at 25° C. and monitored for 9 days.

Salmonella = test: bactericidal activity at 15 μM, CFU versus control; format: cell-based
Procedure: (§1) The bactericidal activity of further AMP peptides according to the invention, in particular of the RiLK31 peptide (RLRWVKIWKK, SEQ ID NO:31) and the RiLK3 peptide (RLRWVRIWRR, SEQ ID NO:3), was tested. The bactericidal activity was expressed as a percentage of viable cells in terms of CFU (Colony Forming Units) in a bacterial sample exposed to each peptide compared to those in a control bacterial sample in the absence of the peptide. All tests were carried out with the same peptide concentration, corresponding to 15 μM.

Listeria = test: bactericidal activity at 15 μM, CFU versus control; format: cell-based
Procedure: as §1

Staphylococcus = test: bactericidal activity at 15 μM, CFU versus control; format: cell-based
Procedure: as §1

E. coli [4] = test: bactericidal activity at 15 μM, CFU versus control; format: cell-based
Procedure: as §1

physchem = format: physicochemical; settings: L or D configuration; ultrapure water, DMSO and DPBS
Procedure: The tests were carried out in three of the most common solvents used in biological applications such as: ultrapure water; DPBS (Dulbecco's Phosphate Buffered Saline), i.e., a saline buffer containing potassium chloride (KCl), monobasic potassium phosphate (KH2PO4), sodium chloride (NaCl) and dibasic sodium phosphate (Na2HPO4-7H2O) and finally in an organic solvent such as dimethylsulfoxide (DMSO).

[5] = format: physicochemical; parameters: α-helix (Bestsel) / β-sheet (Bestsel) / Random (Bestsel): unit not given here; settings: 3 mM SDS; for Random (CONTIN-LL) / α-helix (CONTIN-LL) / β-sheet (CONTIN-LL): after a 24-hour incubation
Procedure: 0.1 g/L of RiLK1 peptide was dissolved in 10 mM concentration solutions at different pHs, in particular: glycine-HCL buffer (pH 2); sodium acetate buffer (pH 4); tris-HCL buffer (pH 7); glycine-NaOH buffer (pH 9). After a 1-hour incubation at 25° C., samples of each solution containing 3 mM SDS were prepared.

For RLKWVRIWRR-NH2 [RiLK1, RLKWVRIWRR], the “Drop Log CFU/ml” value [1] was 5 Log CFU/ml, the “post-treatment decrease in the fungal load” value [1] was 5 Log and the MBC (E. coli [2]) was 2 µM. The yield ([3]; 5 hours) was “+6%”, the yield ([3]; 24 hours) was “+6%” and the yield ([3]; 29 hours) was “+3%”. The yield ([3]; 48 hours) was −1.5%^, the yield ([3]; 53 hours) was “+4.3%^” and the yield ([3]; 6 days) was −6.3%^. For the same substance, the yield ([3]; 9 days) was −8%, the bactericidal activity (Salmonella) was 100% and the bactericidal activity (Listeria) was 99.5%. The bactericidal activity (Staphylococcus) was 96.9%^, the bactericidal activity (E. coli [4]) was 100% and the “maximum concentration completely dissolved” value (physchem) was ≤ 10 mg/mL. For the same substance, the “Random (Bestsel)” value ([5]; pH 2, t = 0) was 44.4, the “Random (DichroWeb CONTIN-LL)” value ([5]; pH 2, t = 0) was 39% and the “α-helix (Bestsel)” value ([5]; pH 2, t = 0) was 18.5. The “α-helix (DichroWeb CONTIN-LL)” value ([5]; pH 2, t = 0) was 22%, the “β-sheet (Bestsel)” value ([5]; pH 2, t = 0) was 37 and the “β-sheet (DichroWeb CONTIN-LL)” value ([5]; pH 2, t = 0) was 39%. The “Random (Bestsel)” value ([5]; pH 2, t = 24 hours) was 44.3, the “Random (DichroWeb CONTIN-LL)” value ([5]; pH 2, t = 24 hours) was 39% and the “α-helix (Bestsel)” value ([5]; pH 2, t = 24 hours) was 13.2. For the same substance, the “α-helix (DichroWeb CONTIN-LL)” value ([5]; pH 2, t = 24 hours) was 17%, the “β-sheet (Bestsel)” value ([5]; pH 2, t = 24 hours) was 42.5 and the “β-sheet (DichroWeb CONTIN-LL)” value ([5]; pH 2, t = 24 hours) was 44%. The “Random (Bestsel)” value ([5]; pH 4, t = 0) was 52.4, the “Random (DichroWeb CONTIN-LL)” value ([5]; pH 4, t = 0) was 36% and the “α-helix (Bestsel)” value ([5]; pH 4, t = 0) was 7.7. For the same substance, the “α-helix (DichroWeb CONTIN-LL)” value ([5]; pH 4, t = 0) was 23%, the “β-sheet (Bestsel)” value ([5]; pH 4, t = 0) was 39.8 and the “β-sheet (DichroWeb CONTIN-LL)” value ([5]; pH 4, t = 0) was 41%. The “Random (Bestsel)” value ([5]; pH 4, t = 24 hours) was 41.2, the “Random (DichroWeb CONTIN-LL)” value ([5]; pH 4, t = 24 hours) was 35% and the “α-helix (Bestsel)” value ([5]; pH 4, t = 24 hours) was 13.3. The “α-helix (DichroWeb CONTIN-LL)” value ([5]; pH 4, t = 24 hours) was 24%, the “β-sheet (Bestsel)” value ([5]; pH 4, t = 24 hours) was 45.5 and the “β-sheet (DichroWeb CONTIN-LL)” value ([5]; pH 4, t = 24 hours) was 41%. For the same substance, the “Random (Bestsel)” value ([5]; pH 7, t = 0) was 45.4, the “Random (DichroWeb CONTIN-LL)” value ([5]; pH 7, t = 0) was 36% and the “α-helix (Bestsel)” value ([5]; pH 7, t = 0) was 15. The “α-helix (DichroWeb CONTIN-LL)” value ([5]; pH 7, t = 0) was 25%, the “β-sheet (Bestsel)” value ([5]; pH 7, t = 0) was 39.5 and the “β-sheet (DichroWeb CONTIN-LL)” value ([5]; pH 7, t = 0) was 39%. For the same substance, the “Random (Bestsel)” value ([5]; pH 7, t = 24 hours) was 40.8, the “Random (DichroWeb CONTIN-LL)” value ([5]; pH 7, t = 24 hours) was 37% and the “α-helix (Bestsel)” value ([5]; pH 7, t = 24 hours) was 15.5. The “α-helix (DichroWeb CONTIN-LL)” value ([5]; pH 7, t = 24 hours) was 19%, the “β-sheet (Bestsel)” value ([5]; pH 7, t = 24 hours) was 43.8 and the “β-sheet (DichroWeb CONTIN-LL)” value ([5]; pH 7, t = 24 hours) was 44%. For the same substance, the “Random (Bestsel)” value ([5]; pH 9, t = 0) was 44.4, the “Random (DichroWeb CONTIN-LL)” value ([5]; pH 9, t = 0) was 39% and the “α-helix (Bestsel)” value ([5]; pH 9, t = 0) was 13.7. For the same substance, the “α-helix (DichroWeb CONTIN-LL)” value ([5]; pH 9, t = 0) was 19%, the “β-sheet (Bestsel)” value ([5]; pH 9, t = 0) was 42 and the “β-sheet (DichroWeb CONTIN-LL)” value ([5]; pH 9, t = 0) was 42%. For the same substance, the “Random (Bestsel)” value ([5]; pH 9, t = 24 hours) was 42.9, the “Random (DichroWeb CONTIN-LL)” value ([5]; pH 9, t = 24 hours) was 24% and the “α-helix (Bestsel)” value ([5]; pH 9, t = 24 hours) was 13.4. The “α-helix (DichroWeb CONTIN-LL)” value ([5]; pH 9, t = 24 hours) was 29%, the “β-sheet (Bestsel)” value ([5]; pH 9, t = 24 hours) was 43.8 and the “β-sheet (DichroWeb CONTIN-LL)” value ([5]; pH 9, t = 24 hours) was 47%. The “Random (CONTIN-LL)” value ([5]; Table 8: pH 2) was 39%, the “α-helix (CONTIN-LL)” value ([5]; Table 8: pH 2) was 22% and the “β-sheet (CONTIN-LL)” value ([5]; Table 8: pH 2) was 39%. For the same substance, the “Random (CONTIN-LL)” value ([5]; Table 8: pH 4) was 36%, the “α-helix (CONTIN-LL)” value ([5]; Table 8: pH 4) was 23% and the “β-sheet (CONTIN-LL)” value ([5]; Table 8: pH 4) was 41%. For the same substance, the “Random (CONTIN-LL)” value ([5]; Table 8: pH 7) was 36%, the “α-helix (CONTIN-LL)” value ([5]; Table 8: pH 7) was 25% and the “β-sheet (CONTIN-LL)” value ([5]; Table 8: pH 7) was 39%. The “Random (CONTIN-LL)” value ([5]; Table 8: pH 9) was 39%, the “α-helix (CONTIN-LL)” value ([5]; Table 8: pH 9) was 19% and the “β-sheet (CONTIN-LL)” value ([5]; Table 8: pH 9) was 42%.
